Results on 26 molecules are retold here after patent US12037339B2, “Substituted imidazoles as GLP-1 receptor agonists” (Eccogene Inc., priority 2020, dated 2024).

The target in the test is (Homo sapiens, UniProt P43220). Nature of the test: h-GLP-1 activity assay (cAMP HTRF, HEK293 cells with stable expression of human GLP-1). The class given is cell-based. To be noted: relative EC50, 10 nM human GLP-1 set as 100% response, 30 min at 37° C. The protocol: Human GLP-1 agonizing activity was detected in HEK293 cells with stable expression of human GLP-1 by Cisbio cAMP Gs dynamic kit (Catalog #62AM4PEC) according to manufacturer's protocol. Briefly, cells were collected and resuspended in assay buffer containing 0.1% BSA and 0.5 mM of IBMX at concentration to 2.5×10^5 cells/mL. Two μL 5× compound solution and 8 μL cell suspension were added to each well of low-volume 384 white assay plate. After 30 min incubation at 37° C., 5 μL cAMP-d2 working solution and 5 μL anti-cAMP antibody-cryptate were added to each well, and incubate at room temperature for 1 hr. Series dilution of cAMP was used as standard. Human GLP-1 (7-37) was used as positive control and 10 nM human GLP-1 was set as 100% response. HTRF signals were read at 665 and 615 nm with EnVision plate reader and calculated cAMP concentration by interpolation to the standard curve. The EC50 value of the tested compounds was calculated by fitting the dose response curve using a 4-parameter non-linear regression routine and relative EC50 was presented in Table 29.
(Homo sapiens, UniProt P43220), sequence (P43220 24-463): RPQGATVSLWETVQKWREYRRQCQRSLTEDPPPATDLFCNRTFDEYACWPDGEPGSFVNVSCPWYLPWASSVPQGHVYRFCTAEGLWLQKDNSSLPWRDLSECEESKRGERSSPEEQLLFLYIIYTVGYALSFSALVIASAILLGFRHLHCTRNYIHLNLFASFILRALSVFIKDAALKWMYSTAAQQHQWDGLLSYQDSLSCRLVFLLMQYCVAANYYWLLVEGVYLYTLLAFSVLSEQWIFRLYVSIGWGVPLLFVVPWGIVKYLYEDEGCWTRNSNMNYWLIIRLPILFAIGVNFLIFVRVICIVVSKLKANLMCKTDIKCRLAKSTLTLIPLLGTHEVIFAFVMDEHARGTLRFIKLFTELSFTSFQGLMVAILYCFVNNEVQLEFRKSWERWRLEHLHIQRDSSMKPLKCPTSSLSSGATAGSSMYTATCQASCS
For orientation: TR-FRET usually uses a lanthanide donor and a delayed reading to cut background.
The term EC50 denotes the concentration that produces a half-maximal response. Higher therefore signals a need for much substance. `C[C@H]1c2c(nn(-c3ccc(F)c(C4CC4)c3)c2-n2ccn(-c3ccc4c(cnn4C)c3F)c2=O)CCN1C(=O)c1cc2cc([C@H]3CCOC(C)(C)C3)cnn2c1C1(c2noc(=O)[nH]2)CC1` (single isomer, unassigned) [Compound 99] returned a concentration for a half-maximal effect (EC50) below 20 nM. To `C[C@H](c1ccc(F)cc1)n1nc2c(c1-n1ccn(-c3ccc4c(cnn4C)c3F)c1=O)[C@H](C)N(C(=O)c1cc3cc([C@H]4CCOC(C)(C)C4)ccc3n1C1(c3noc(=O)[nH]3)CC1)CC2` (single isomer, unassigned) [Compound 41] belongs above 100 nM; to `C[C@H]1c2c(-n3ccn(-c4ccc5c(cnn5C)c4F)c3=O)c(-c3ccc(F)cc3)nn2CCN1C(=O)c1cc2cc([C@@H]3CCOC(C)(C)C3)ccc2n1C1(c2noc(=O)[nH]2)CC1` (single isomer, unassigned) [Compound 33], below 20 nM; to `Cc1cc(-n2nc3c(c2-n2ccn(-c4ccc5c(cnn5C)c4F)c2=O)[C@H](C)N(C(=O)c2cn4cc([C@H]5CCOC(C)(C)C5)ccc4c2[C@]2(c4noc(=O)[nH]4)C[C@@H]2C)CC3)cc(C)c1F` (single isomer, unassigned) [Compound 5], below 20 nM.

The molecule `C[C@@H]1c2c(-n3ccn(-c4ccc5c(cnn5C)c4F)c3=O)c(-c3ccc(F)c(Cl)c3)nn2CCN1C(=O)c1cc2cc([C@@H]3CCOC(C)(C)C3)ccc2n1C1(c2noc(=O)[nH]2)CC1` (single isomer, unassigned) [Compound 49] registered a half-maximal effective concentration (EC50) below 20 nM. To `COCC12CCC(n3ccn(-c4c(-c5ccc(F)cc5)nn5c4[C@H](C)N(C(=O)c4cc6cc(C7CCOCC7)ccc6n4Cc4noc(=O)[nH]4)CC5)c3=O)(CC1)CC2` (single isomer, unassigned) [Compound 53] belongs above 100 nM; to `C[C@H](c1ccc(F)cc1)n1nc2c(c1-n1ccn(-c3ccc4c(cnn4C)c3F)c1=O)[C@H](C)N(C(=O)c1cc3cc([C@@H]4CCOC(C)(C)C4)ccc3n1C1(c3noc(=O)[nH]3)CC1)CC2` (single isomer, unassigned) [Compound 38], below 20 nM; to `C[C@H]1c2c(nn(-c3ccc(F)c(F)c3)c2-n2ccn(-c3ccc4c(cnn4C)c3F)c2=O)CCN1C(=O)c1cn2cc([C@@H]3CCOC(C)(C)C3)ccc2c1C1(c2noc(=O)[nH]2)CC1` (single isomer, unassigned) [Compound 70], below 20 nM. To `C[C@H]1c2c(nn(-c3ccc(F)c(C4CC4)c3)c2-n2ccn(-c3ccc4c(cnn4C)c3F)c2=O)CCN1C(=O)c1cn2cc([C@@H]3CCOC(C)(C)C3)cc(F)c2c1C1(c2noc(=O)[nH]2)CC1` (single isomer, unassigned) [Compound 92] belongs below 20 nM; to `C[C@H]1c2c(nn(-c3ccc(F)c(C4CC4)c3)c2-n2ccn(-c3ccc4c(cnn4C)c3F)c2=O)CCN1C(=O)c1cc2nc([C@@H]3CCOC(C)(C)C3)ccn2c1C1(c2noc(=O)[nH]2)CC1` (single isomer, unassigned) [Compound 102], below 20 nM. To `C[C@H]1c2c(nn(-c3ccc(F)c(C4CC4)c3)c2-n2ccn(-c3ccc4c(cnn4C)c3F)c2=O)CCN1C(=O)c1cc2c(F)c([C@H]3CCOC(C)(C)C3)ccn2c1C1(c2noc(=O)[nH]2)CC1` (single isomer, unassigned) [Compound 95] belongs above 100 nM; to `Cc1cc(-n2nc3c(c2-n2ccn(-c4ccc5c(cnn5C)c4F)c2=O)CN(C(=O)c2cc4cc(C5CCOCC5)ccc4n2-c2cccc4[nH]nnc24)CC3)cc(C)c1F` [Compound 59, 1-(5-(1-(1H-benzo[d][1,2,3]triazol-4-yl)-5-(tetrahydro-2H-pyran-4-yl)-1H-indole-2-carbonyl)-2-(4-fluoro-3,5-dimethylphenyl)-4,5,6,7-tetrahydro-2H-pyrazolo[4,3-c]pyridin-3-yl)-3-(4-fluoro-1-methyl-1H-indazol-5-yl)-1,3-dihydro-2H-imidazol-2-one], above 100 nM; to `C[C@H]1c2c(nn(C3CCC(F)(F)CC3)c2-n2ccn(-c3ccc4c(cnn4C)c3F)c2=O)CCN1C(=O)c1cc2cc([C@@H]3CCOC(C)(C)C3)ccc2n1C1(c2noc(=O)[nH]2)CC1` (single isomer, unassigned) [Compound 44], below 20 nM. `C[C@H]1c2c(nn(C34CC(C3)C4)c2-n2ccn(-c3ccc4c(cnn4C)c3F)c2=O)CCN1C(=O)c1cc2cc([C@@H]3CCOC(C)(C)C3)ccc2n1C1(c2noc(=O)[nH]2)CC1` (single isomer, unassigned) [Compound 61] showed a 50% effective concentration (EC50) of 20 to 100 nM. The molecule `Cc1cc(-n2nc3c(c2-n2ccn(-c4ccc5c(cnn5C)c4F)c2=O)[C@H](C)N(C(=O)c2cc4cc(C5CCOC(C)(C)C5)ccc4n2C2(c4nc(O)ns4)CC2)CC3)cc(C)c1F` (mixture of isomers) [Compound 48, 1-((4S)-5-(5-(2,2-dimethyltetrahydro-2H-pyran-4-yl)-1-(1-(3-hydroxy-1,2,4-thiadiazol-5-yl)cyclopropyl)-1H-indole-2-carbonyl)-2-(4-fluoro-3,5-dimethylphenyl)-4-methyl-4,5,6,7-tetrahydro-2H-pyrazolo[4,3-c]pyridin-3-yl)-3-(4-fluoro-1-methyl-1H-indazol-5-yl)-1,3-dihydro-2H-imidazol-2-one] yielded an EC50 below 20 nM.

`C[C@H]1c2c(-n3ccn(-c4ccc5c(cnn5C)c4F)c3=O)c(-c3ccc(F)c(C(F)(F)F)c3)nn2CCN1C(=O)c1cc2cc([C@@H]3CCOC(C)(C)C3)ccc2n1C1(c2noc(=O)[nH]2)CC1` (single isomer, unassigned) [Compound 65]: the half-maximal effective concentration (EC50) was below 20 nM. The same measure for `Cc1cc(-n2nc3c(c2-n2ccn(-c4ccc5c(cnn5C)c4F)c2=O)[C@H](C)N(C(=O)c2cn4cc([C@H]5CCOC(C)(C)C5)ccc4c2Cc2noc(=O)[nH]2)CC3)cc(C)c1F` (single isomer, unassigned) [Compound 22]: 20 to 100 nM; for `Cc1cc(-n2nc3c(c2-n2ccn(-c4ccc5c(cnn5C)c4F)c2=O)[C@H](C)N(C(=O)c2cc4cc([C@@H]5CCOC(C)(C)C5)ccn4c2C2(c4noc(=O)[nH]4)CC2)CC3)ccc1F` (single isomer, unassigned) [Compound 77]: below 20 nM. To `Cc1cc(-c2nn3c(c2-n2ccn(-c4ccc5c(cnn5C)c4F)c2=O)[C@@H](C)N(C(=O)c2cn4cc([C@@H]5CCOC(C)(C)C5)ccc4c2C2(c4noc(=O)[nH]4)CC2)CC3)cc(C)c1F` (single isomer, unassigned) [Compound 69] belongs below 20 nM.

For `C[C@H]1c2c(nn(-c3ccc(F)c(C4CC4)c3)c2-n2ccn(-c3ccc4c(cnn4C)c3F)c2=O)CCN1C(=O)c1nn2cc(C3CCOC(C)(C)C3)cnc2c1C1(c2noc(=O)[nH]2)CC1` (mixture of isomers) [Compound 103, 3-(1-(2-((S)-2-(3-cyclopropyl-4-fluorophenyl)-3-(3-(4-fluoro-1-methyl-1H-indazol-5-yl)-2-oxo-2,3-dihydro-1H-imidazol-1-yl)-4-methyl-4,5,6,7-tetrahydro-2H-pyrazolo[4,3-c]pyridine-5-carbonyl)-6-(2,2-dimethyltetrahydro-2H-pyran-4-yl)pyrazolo[1,5-a]pyrimidin-3-yl)cyclopropyl)-1,2,4-oxadiazol-5(4H)-one], the EC50 was below 20 nM. To `Cc1cc(-n2nc3c(c2-n2ccn(-c4ccc5c(cnn5C)c4F)c2=O)[C@H](C)N(C(=O)c2cc4cc(C5CCOC(C)(C)C5)ccc4n2C2(CNS(C)(=O)=O)CC2)CC3)cc(C)c1F` (mixture of isomers) [Compound 64, N-((1-(5-(2,2-dimethyltetrahydro-2H-pyran-4-yl)-2-((S)-3-(3-(4-fluoro-1-methyl-1H-indazol-5-yl)-2-oxo-2,3-dihydro-1H-imidazol-1-yl)-2-(4-fluoro-3,5-dimethylphenyl)-4-methyl-4,5,6,7-tetrahydro-2H-pyrazolo[4,3-c]pyridine-5-carbonyl)-1H-indol-1-yl)cyclopropyl)methyl)methanesulfonamide] belongs above 100 nM.

Turning to `Cc1cc(-n2nc3c(c2-n2ccn(-c4ccc5c(cnn5C)c4F)c2=O)[C@H](C)N(C(=O)c2cn4cc(-c5ccnc(C(F)(F)F)c5)ccc4c2Cc2noc(=O)[nH]2)CC3)cc(C)c1F` [Compound 15, (S)-3-((2-(3-(3-(4-fluoro-1-methyl-1H-indazol-5-yl)-2-oxo-2,3-dihydro-1H-imidazol-1-yl)-2-(4-fluoro-3,5-dimethylphenyl)-4-methyl-4,5,6,7-tetrahydro-2H-pyrazolo[4,3-c]pyridine-5-carbonyl)-6-(2-(trifluoromethyl)pyridin-4-yl)indolizin-1-yl)methyl)-1,2,4-oxadiazol-5(4H)-one], the EC50 was below 20 nM. In turn, `C[C@H]1c2c(nn([C@@H](C)c3ccc(F)cc3)c2-n2ccn(-c3ccc4c(cnn4C)c3F)c2=O)CCN1C(=O)c1cc2cc([C@H]3CCOC(C)(C)C3)ccc2n1C1(c2noc(=O)[nH]2)CC1` (single isomer, unassigned) [Compound 39] showed a concentration for a half-maximal effect (EC50) above 100 nM. The molecule `COCC12CCC(n3ccn(-c4c(-c5ccc(F)cc5)nn5c4[C@H](C)N(C(=O)c4cc6cc([C@@H]7CCOC(C)(C)C7)ccc6n4[C@@]4(c6noc(=O)[nH]6)C[C@@H]4C)CC5)c3=O)(CC1)CC2` (single isomer, unassigned) [Compound 62] came in with a concentration giving a half-maximal response (EC50) of 20 to 100 nM. The same measure for `Cc1cc(-n2nc3c(c2-n2ccn(-c4ccc5c(cnn5C)c4F)c2=O)[C@H](C)N(C(=O)c2cn4cc([C@@H]5CCOC(C)(C)C5)ccc4c2Cc2noc(=O)[nH]2)CC3)cc(C)c1F` (single isomer, unassigned) [Compound 21]: below 20 nM; for `Cc1cc(-n2nc3c(c2-n2ccn(-c4ccn5c(C)ncc5c4)c2=O)[C@H](C)N(C(=O)c2cn4cc([C@H]5CCOC(C)(C)C5)ccc4c2C2(c4noc(=O)[nH]4)CC2)CC3)cc(C)c1F` (single isomer, unassigned) [Compound 18]: below 20 nM.
